Read-outs that look alike come from different tables or passages of the source.
Columns and labels:
HT1080 = experiment: MTS proliferation assay, HT1080; type: cell-based, human; conditions: HT1080, 72 h incubation, read-out: MTS proliferation assay IC 50 HT1080
How it was run: (§1)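 A 72 h exposure to compound (final 0.3–10 μM, four levels) was followed by 3 h MTS incubation and an A492 read.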

[1] = test system: adherent cells or suspension cells; experiment: Hoechst 33342 nuclear staining (fraction of apoptotic nuclei); type: cell-based; set-up: key: 0 relating to no activity; 1 relating to weak activity comprising less than 70% of the cells; score 2 relating to strong activity comprising more than 70% of the cells
MRC5 = experiment: MTS proliferation assay, MRC5; type: cell-based; conditions: MRC5, 72 h incubation, read-out: MTS proliferation assay IC 50 MRC5
How it was run: (§2)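 Proliferation is followed by MTS conversion, measured as absorbance at 492 nm. Cells are exposed for 72 h to four fixed compound concentrations (10 μM down to 0.3 μM) under 37° C, 7.5% CO2 culture conditions.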

HeLa = experiment: MTS proliferation assay, HeLa; type: cell-based, human; conditions: 72 h incubation, read-out: MTS proliferation assay IC 50 HeLa
How it was run: as §1

Jurkat = experiment: MTS proliferation assay, Jurkat; type: cell-based, human; conditions: 72 h incubation, read-out: MTS proliferation assay IC 50 Jurkat
How it was run: as §1

Jily = experiment: MTS proliferation assay, Jily; type: cell-based; conditions: 72 h incubation, read-out: MTS proliferation assay IC 50 Jily
How it was run: as §2

IC50 (HT1080)	SMILES	Hoechst 33342 nuclear staining score ([1]; H460, conc 0.01 μm)	Hoechst 33342 nuclear staining score ([1]; H460, conc 0.1 μm)	Hoechst 33342 nuclear staining score ([1]; H460, conc 1 μm)	Hoechst 33342 nuclear staining score ([1]; HeLa, conc 0.01 μm)	Hoechst 33342 nuclear staining score ([1]; HeLa, conc 0.1 μm)	Hoechst 33342 nuclear staining score ([1]; HeLa, conc 1 μm)	Hoechst 33342 nuclear staining score ([1]; Jily, conc 0.01 μm)	Hoechst 33342 nuclear staining score ([1]; Jily, conc 0.1 μm)	Hoechst 33342 nuclear staining score ([1]; Jily, conc 1 μm)	Hoechst 33342 nuclear staining score ([1]; Jurkat, conc 0.01 μm)	Hoechst 33342 nuclear staining score ([1]; Jurkat, conc 0.1 μm)	Hoechst 33342 nuclear staining score ([1]; Jurkat, conc 1 μm)	Hoechst 33342 nuclear staining score ([1]; MRC5, conc 0.01 μm)	Hoechst 33342 nuclear staining score ([1]; MRC5, conc 0.1 μm)	Hoechst 33342 nuclear staining score ([1]; MRC5, conc 1 μm)	Hoechst 33342 nuclear staining score ([1]; PBLs, conc 0.01 μm)	Hoechst 33342 nuclear staining score ([1]; PBLs, conc 0.1 μm)	Hoechst 33342 nuclear staining score ([1]; PBLs, conc 1 μm)	IC50 (Jily)	further results
–	CN(C)c1nonc1-c1nc2ccccc2n1CC(=O)c1ccc(Cl)cc1 [Example 4, Dimethyl-{4-[1-(4-chlorophenacyl)-1H-benzimidazol-2-yl]-furazan-3-yl}-amine]	0	0	1 (1 relating to weak activity comprising less than 70% of the cells)	0	0	2 (score 2 relating to strong activity comprising more than 70% of the cells)	0	0	2 (score 2 relating to strong activity comprising more than 70% of the cells)	0	0	2 (score 2 relating to strong activity comprising more than 70% of the cells)	0	0	2 (score 2 relating to strong activity comprising more than 70% of the cells)	0	0	0	100 to 1000 nM	IC50 (HT1080; Homo sapiens, HT-1080): 100 to 1000 nM; IC50 (MRC5; Homo sapiens): 100 to 1000 nM; IC50 (HeLa; Homo sapiens): 100 to 1000 nM; IC50 (Jurkat; Homo sapiens): 10 to 100 nM
10 to 100 nM	Nc1nonc1-c1nc2ccccc2n1CC(=O)c1ccc2c(c1)OCO2 [Example 45]	0	2 (score 2 relating to strong activity comprising more than 70% of the cells)	2 (score 2 relating to strong activity comprising more than 70% of the cells)	0	1 (1 relating to weak activity comprising less than 70% of the cells)	2 (score 2 relating to strong activity comprising more than 70% of the cells)	0	2 (score 2 relating to strong activity comprising more than 70% of the cells)	2 (score 2 relating to strong activity comprising more than 70% of the cells)	0	2 (score 2 relating to strong activity comprising more than 70% of the cells)	2 (score 2 relating to strong activity comprising more than 70% of the cells)	0	0	2 (score 2 relating to strong activity comprising more than 70% of the cells)	0	0	0	10 to 100 nM	IC50 (MRC5): 100 to 1000 nM; IC50 (HeLa): 10 to 100 nM; IC50 (Jurkat): 10 to 100 nM
> 1000 nM	COc1cccc(/C=C/C(=O)Cn2c(-c3nonc3N)nc3ccccc32)c1 [Example 120]	0	0	0	0	0	0	0	0	0	0	0	0	0	0	0	0	0	0	> 1000 nM	IC50 (MRC5): > 1000 nM; IC50 (HeLa): > 1000 nM; IC50 (Jurkat): > 1000 nM
